Test [1] can be described thus: Displacement of [3H]SB-2587891 from Escherichia coli ribosomes. Type of test: subcellular, Ribosome. On the technique in general: Loss of bound radioactivity is the signal in a displacement assay; it reports binding, not function.
A further test relates to Streptococcus pyogenes. Nature of the test: Antimicrobial activity against Streptococcus pyogenes. Type of test: functional.
A further test has as its system Staphylococcus aureus. Nature of the test: Antimicrobial activity against Staphylococcus aureus. Type of test: functional.

A value given as a limit tells only on which side of the number the result lay.

For `C=C[C@]1(C)C[C@@H](OC(=O)CSC2CCNCC2)[C@]2(C)[C@H](C)CC[C@]3(CCC(=O)[C@H]32)[C@@H](C)[C@@H]1O`, binding in test [1] was characterised by a dissociation constant (Kd) of 7.5 nM.
In turn, `C=C[C@]1(C)C[C@@H](OC(=O)NC(=O)c2ccc(N)nn2)[C@]2(C)[C@H](C)CC[C@]3(C[C@H](O)C(=O)[C@H]32)[C@@H](C)[C@@H]1O` yielded a Kd in test [1] of 11.1 nM.
As for `C=C[C@]1(C)C[C@@H](OC(=O)CS[C@@H]2C[C@H]3CC[C@@H](C2)N3C)[C@]2(C)[C@H](C)CC[C@]3(CCC(=O)[C@H]32)[C@@H](C)[C@@H]1O` [RETAPAMULIN], the MIC in the test with Streptococcus pyogenes and against Staphylococcus aureus was not above 0.5 µg/mL throughout. In addition, the Kd in test [1] amounted to 2 nM.

Usually Kd stands for the concentration at which binding is half-saturated. By MIC is commonly meant the smallest concentration in the dilution series that meets the test's criterion for growth inhibition.

The record behind these values is ChEMBL document CHEMBL1147077, “Induced-fit tightens pleuromutilins binding to ribosomes and remote interactions enable their selectivity” (Proc Natl Acad Sci U S A, 2007).
